Data published in patent publication US20060058374A1, “Urotensin II receptor agents” (priority 2002, published 2006).

What was measured:
Dopamine D2 = target: T1, Dopamine D2 (Homo sapiens, UniProt P14416); experiment: R-SAT assay, Dopamine D2; type: cell-based
T1 construct: expressed in transfected cells; host or cells: NIH3T3
Method: (§1) The test compound of Formula III was screened according to a modification of the method described in U.S. Pat. No. 5,912,312. The method, herein referred to as Method 1, consists of the following:
(§2) Receptor Selection and Amplification (R-SAT) Assays.
(§3) R-SAT assays were performed with minor modifications from that previously described (6). Briefly, NIH3T3 cells were grown in tissue culture treated rollerbottles to 40-50% confluence. Cells were transfected for 12-16 hours with plasmid DNAs using superfect (Qiagen Inc.) as per manufacture's protocols. R-SAT's were generally performed with 10 μg/rollerbottle of receptor and 50 μg/rollerbottle of Beta-galactosidase plasmid DNA. All receptor and G-protein constructs used were in the PSI mammalian expression vector (Promega Inc.). The transfected cells were then trypsinized and frozen in DMEM containing 10% DMSO. Frozen cells were later thawed, plated at 10,000-40,000 cells per well of a 96 ½ area plate that contained drug. […] Media was then removed from the plates and marker gene activity was measured by the addition of the beta-galactosidase substrate ONPG (in PBS with 5% NP-40). The resulting colorimetric reaction was measured in a spectrophotometric plate reader (Titertek Inc.) at […].
(§4) EC50, IC50 and Ki are presented as the negative of the calculated potency in Molar.

Dopamine D1 = target: T2, Dopamine D1 (Homo sapiens, UniProt P21728); experiment: R-SAT assay, Dopamine D1; type: cell-based
T2 construct: expressed in transfected cells; host or cells: NIH3T3
Method: as §1, §2, §3, §4

Serotonin 5HT2a = target: T3, Serotonin 5HT2a (Homo sapiens, UniProt P28223); experiment: R-SAT assay, Serotonin 5HT2a; type: cell-based
T3 construct: expressed in transfected cells; host or cells: NIH3T3
Method: as §1, §2, §3, §4

Serotonin 5HT2b = target: T4, Serotonin 5HT2b (Homo sapiens, UniProt P41595); experiment: R-SAT assay, Serotonin 5HT2b; type: cell-based
T4 construct: expressed in transfected cells; host or cells: NIH3T3
Method: as §1, §2
R-SAT assays were performed with minor modifications from that previously described (6). Briefly, NIH3T3 cells were grown in tissue culture treated rollerbottles to 40-50% confluence. Cells were transfected for 12-16 hours with plasmid DNAs using superfect (Qiagen Inc.) as per manufacture's protocols. R-SAT's were generally performed with 10 μg/rollerbottle of receptor and 50 μg/rollerbottle of Beta-galactosidase plasmid DNA. All receptor and G-protein constructs used were in the PSI mammalian expression vector (Promega Inc.). The transfected cells were then trypsinized and frozen in DMEM containing 10% DMSO. Frozen cells were later thawed, plated at 10,000-40,000 cells per well of a 96 ½ area plate that contained drug. Cells were then grown in a humidified atmosphere with 5% ambient CO2 for five days. Media was then removed from the plates and marker gene activity was measured by the addition of the beta-galactosidase substrate ONPG (in PBS with 5% NP-40). The resulting colorimetric reaction was measured in a spectrophotometric plate reader (Titertek Inc.) at […].
as §4

Histamine H2 = target: T5, Histamine H2 (Homo sapiens, UniProt P25021); experiment: R-SAT assay, Histamine H2; type: cell-based
T5 construct: expressed in transfected cells; host or cells: NIH3T3
Method: as §1, §2, §3, §4

Beta Adrenergic 1 = target: T6, Beta Adrenergic 1 (Homo sapiens, UniProt P08588); experiment: R-SAT assay, Beta Adrenergic 1; type: cell-based; conditions: percent maximal activation relative to control compound
T6 construct: expressed in transfected cells; host or cells: NIH3T3
Method: as §1, §2, §3, §4

CRF2b = target: T7, CRF2b (Homo sapiens, UniProt Q13324); experiment: R-SAT assay, CRF2b; type: cell-based; conditions: percent maximal activation relative to control compound
T7 construct: expressed in transfected cells; host or cells: NIH3T3
Method: as §1, §2, §3, §4

k opioid = target: T8, k opioid (Homo sapiens, UniProt P41145); experiment: R-SAT assay, k opioid; type: cell-based; conditions: percent maximal activation relative to control compound
T8 construct: expressed in transfected cells; host or cells: NIH3T3
Method: as §1, §2, §3, §4

Serotonin 5HT-1A = target: T9, Serotonin 5HT-1A (Homo sapiens, UniProt P08908); experiment: R-SAT assay, Serotonin 5HT-1A; type: cell-based; conditions: competitive antagonist mode; percent maximal inhibition relative to control standard compound
T9 construct: expressed in transfected cells; host or cells: NIH3T3
Method: as §1, §2, §3, §4

male NSA mice = experiment: Locomotor activity in mice after i.v. injection; type: in vivo
Method: The test compound of Formula III was tested at 10 mg/kg, i.v. in male NSA mice. Locomotor activity was measured for 15 min following injection. The locomotor activity was decreased relative to sham injected animals. Within a few minutes into the session, the mice sat quietly in a corner of the chamber in a normal posture.
Following the initial experiment, a dose-response curves using 1, 3, and 10 mg/kg, i.v. were conducted. The effects of 10 mg/kg the test compound of Formula III were replicated.

[1] = competitive antagonist mode, percent maximal inhibition relative to control standard compound
[2] = percent maximal activation relative to control compound
[3] = inverse agonist mode, percent maximal inhibition relative to repression of basal activity by a control standard compound

T4 sequence (P41595 whole entry): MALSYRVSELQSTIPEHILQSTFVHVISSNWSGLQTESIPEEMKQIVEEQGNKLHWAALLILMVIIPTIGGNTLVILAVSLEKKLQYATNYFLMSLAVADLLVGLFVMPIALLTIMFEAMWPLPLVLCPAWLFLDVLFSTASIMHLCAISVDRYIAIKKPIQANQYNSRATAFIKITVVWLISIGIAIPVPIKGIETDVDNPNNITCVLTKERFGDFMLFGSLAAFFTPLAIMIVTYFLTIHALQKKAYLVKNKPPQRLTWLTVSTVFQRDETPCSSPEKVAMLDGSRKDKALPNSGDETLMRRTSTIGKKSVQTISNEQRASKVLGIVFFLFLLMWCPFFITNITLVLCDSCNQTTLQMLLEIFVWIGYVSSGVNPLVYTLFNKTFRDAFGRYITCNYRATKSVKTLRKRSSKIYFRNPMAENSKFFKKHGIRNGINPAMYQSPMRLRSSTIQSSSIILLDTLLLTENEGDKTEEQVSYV
T2 sequence (P21728 whole entry): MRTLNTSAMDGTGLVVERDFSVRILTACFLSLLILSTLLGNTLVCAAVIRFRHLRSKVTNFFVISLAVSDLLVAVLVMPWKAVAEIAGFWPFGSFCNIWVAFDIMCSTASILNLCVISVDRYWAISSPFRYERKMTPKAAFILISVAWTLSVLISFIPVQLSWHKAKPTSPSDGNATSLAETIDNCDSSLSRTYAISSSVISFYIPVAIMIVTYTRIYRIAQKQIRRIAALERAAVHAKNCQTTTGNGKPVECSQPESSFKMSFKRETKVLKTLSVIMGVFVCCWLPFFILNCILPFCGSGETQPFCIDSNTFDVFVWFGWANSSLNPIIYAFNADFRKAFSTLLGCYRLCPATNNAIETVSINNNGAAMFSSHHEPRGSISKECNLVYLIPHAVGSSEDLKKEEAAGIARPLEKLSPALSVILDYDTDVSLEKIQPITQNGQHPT
T5 sequence (P25021 whole entry): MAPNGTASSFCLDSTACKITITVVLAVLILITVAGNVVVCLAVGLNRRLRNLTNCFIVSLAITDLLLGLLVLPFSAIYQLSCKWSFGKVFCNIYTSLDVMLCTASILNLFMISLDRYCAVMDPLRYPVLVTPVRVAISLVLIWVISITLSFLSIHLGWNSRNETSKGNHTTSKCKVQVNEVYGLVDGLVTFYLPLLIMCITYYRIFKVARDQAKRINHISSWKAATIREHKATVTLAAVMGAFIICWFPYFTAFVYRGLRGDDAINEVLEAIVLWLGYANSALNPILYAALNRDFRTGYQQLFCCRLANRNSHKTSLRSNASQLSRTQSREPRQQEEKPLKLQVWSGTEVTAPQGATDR
T3 sequence (P28223 whole entry): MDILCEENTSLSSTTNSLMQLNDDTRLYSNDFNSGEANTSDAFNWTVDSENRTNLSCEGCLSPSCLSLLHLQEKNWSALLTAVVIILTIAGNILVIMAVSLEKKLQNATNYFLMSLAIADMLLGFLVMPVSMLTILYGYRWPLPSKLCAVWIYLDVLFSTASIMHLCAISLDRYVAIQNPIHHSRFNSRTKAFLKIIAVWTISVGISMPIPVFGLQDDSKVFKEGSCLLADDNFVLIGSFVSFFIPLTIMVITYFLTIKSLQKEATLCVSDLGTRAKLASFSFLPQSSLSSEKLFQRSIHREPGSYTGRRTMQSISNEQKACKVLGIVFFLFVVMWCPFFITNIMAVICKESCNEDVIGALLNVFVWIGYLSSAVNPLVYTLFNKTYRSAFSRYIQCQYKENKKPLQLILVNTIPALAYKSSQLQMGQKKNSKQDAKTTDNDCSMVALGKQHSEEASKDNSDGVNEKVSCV
T1 sequence (P14416 whole entry): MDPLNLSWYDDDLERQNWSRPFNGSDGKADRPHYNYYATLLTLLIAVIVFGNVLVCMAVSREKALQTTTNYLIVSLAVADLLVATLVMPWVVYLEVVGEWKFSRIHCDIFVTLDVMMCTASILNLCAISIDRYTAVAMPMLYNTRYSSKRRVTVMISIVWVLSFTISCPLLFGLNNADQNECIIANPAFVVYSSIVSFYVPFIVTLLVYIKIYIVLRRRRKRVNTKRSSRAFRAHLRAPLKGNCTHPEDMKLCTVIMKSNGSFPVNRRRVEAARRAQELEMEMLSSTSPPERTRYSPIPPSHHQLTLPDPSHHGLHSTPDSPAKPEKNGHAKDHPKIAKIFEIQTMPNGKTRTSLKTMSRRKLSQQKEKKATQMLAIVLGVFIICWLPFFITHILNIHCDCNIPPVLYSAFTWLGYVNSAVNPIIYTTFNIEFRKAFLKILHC
T9 sequence (P08908 whole entry): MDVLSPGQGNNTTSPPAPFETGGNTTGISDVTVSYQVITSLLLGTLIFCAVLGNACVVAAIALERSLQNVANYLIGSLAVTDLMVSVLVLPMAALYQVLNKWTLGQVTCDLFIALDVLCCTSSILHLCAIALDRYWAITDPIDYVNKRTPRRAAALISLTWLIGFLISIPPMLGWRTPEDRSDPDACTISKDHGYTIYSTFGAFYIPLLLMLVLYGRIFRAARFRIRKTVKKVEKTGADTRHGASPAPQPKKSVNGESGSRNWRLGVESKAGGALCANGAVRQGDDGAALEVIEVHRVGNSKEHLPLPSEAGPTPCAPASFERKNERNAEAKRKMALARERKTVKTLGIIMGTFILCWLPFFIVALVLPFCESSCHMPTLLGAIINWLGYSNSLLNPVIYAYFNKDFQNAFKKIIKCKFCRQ
T6 sequence (P08588 whole entry): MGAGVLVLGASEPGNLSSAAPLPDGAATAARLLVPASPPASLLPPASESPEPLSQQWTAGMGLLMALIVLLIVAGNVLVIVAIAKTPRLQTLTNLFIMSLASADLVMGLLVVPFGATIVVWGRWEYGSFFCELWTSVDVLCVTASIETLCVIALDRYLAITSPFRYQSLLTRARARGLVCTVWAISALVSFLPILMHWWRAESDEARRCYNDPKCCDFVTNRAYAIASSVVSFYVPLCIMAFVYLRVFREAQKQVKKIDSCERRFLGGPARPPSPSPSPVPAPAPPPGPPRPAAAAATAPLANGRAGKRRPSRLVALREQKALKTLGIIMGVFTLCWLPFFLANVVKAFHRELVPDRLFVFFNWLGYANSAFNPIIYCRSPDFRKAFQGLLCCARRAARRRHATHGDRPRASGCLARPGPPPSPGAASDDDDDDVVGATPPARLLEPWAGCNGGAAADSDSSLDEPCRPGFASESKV
T8 sequence (P41145 whole entry): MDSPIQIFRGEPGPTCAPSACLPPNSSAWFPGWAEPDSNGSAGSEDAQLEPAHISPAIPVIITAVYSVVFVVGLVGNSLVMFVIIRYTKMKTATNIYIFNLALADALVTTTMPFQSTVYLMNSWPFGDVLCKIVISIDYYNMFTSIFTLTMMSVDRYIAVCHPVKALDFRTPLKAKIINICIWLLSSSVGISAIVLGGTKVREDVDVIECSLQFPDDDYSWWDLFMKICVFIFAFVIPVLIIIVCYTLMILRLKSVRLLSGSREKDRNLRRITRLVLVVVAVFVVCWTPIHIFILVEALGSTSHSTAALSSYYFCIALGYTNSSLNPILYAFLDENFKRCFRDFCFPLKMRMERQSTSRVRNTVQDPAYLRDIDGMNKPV
T7 sequence (Q13324 1-438 isoform Q13324-2): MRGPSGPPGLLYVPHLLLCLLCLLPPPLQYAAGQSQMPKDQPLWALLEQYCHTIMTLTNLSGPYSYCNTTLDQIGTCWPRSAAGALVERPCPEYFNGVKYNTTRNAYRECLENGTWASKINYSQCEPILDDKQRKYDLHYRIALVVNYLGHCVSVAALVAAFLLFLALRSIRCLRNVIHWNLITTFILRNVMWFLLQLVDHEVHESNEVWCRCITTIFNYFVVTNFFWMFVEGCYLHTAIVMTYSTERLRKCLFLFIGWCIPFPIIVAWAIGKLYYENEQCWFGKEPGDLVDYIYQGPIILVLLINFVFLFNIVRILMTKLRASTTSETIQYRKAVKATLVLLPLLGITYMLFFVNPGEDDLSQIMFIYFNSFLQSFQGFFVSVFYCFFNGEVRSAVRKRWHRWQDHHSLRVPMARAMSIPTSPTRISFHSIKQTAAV

SMILES: CN(C)CCC1(c2ccc(Cl)cc2)Cc2ccccc2C(=O)O1 (stereo not drawn) [Formula III]
- Competitive Antagonist % Inh (Dopamine D2; [1]): 13.2%
- Agonist % Eff (Dopamine D2; [2]): 13.6%
- Competitive Antagonist % Inh (Dopamine D1; [1]): 0%
- Agonist % Eff (Dopamine D1; [2]): 0%
- Inverse Agonist % Inh (Serotonin 5HT2a; [3]): 11.9%
- Agonist % Eff (Serotonin 5HT2a; [2]): 58%
- Competitive Antagonist % Inh (Serotonin 5HT2b; [1]): 0%
- Inverse Agonist % Inh (Serotonin 5HT2b; [3]): 0%
- Agonist % Eff (Serotonin 5HT2b; [2]): 0%
- Inverse Agonist % Inh (Histamine H2; [3]): 0%
- Agonist % Eff (Histamine H2; [2]): 0%
- Agonist % Eff (Beta Adrenergic 1): 0%
- Agonist % Eff (CRF2b): 0%
- Agonist % Eff (k opioid): 0%
- Competitive Antagonist % Inh (Serotonin 5HT-1A): 0%
- locomotor activity (male NSA mice; 10 mg/kg i.v., male NSA mice, 15 min following injection, relative to sham injected animals): decreased
- behavioural observation (responsiveness, appearance) (male NSA mice; 10 mg/kg i.v., male NSA mice, during the session): responsive to sound and touch and otherwise appeared normal
- effects on locomotor activity in dose-response experiment (male NSA mice; dose-response 1, 3 and 10 mg/kg i.v., result stated for 10 mg/kg): replicated
